Assay results published in patent US9144557B2, “Hematopoietic growth factor mimetic small molecule compounds and their uses” (Ligand Pharmaceuticals Inc., priority 2009, dated 2015).

test system: UT7/EPO Cell line; assay: Cell Proliferation Assay (UT7/EPO, ViaLight Plus); assay type: cell-based, human; conditions: proliferative effect; compounds at 10 uM; UT7/EPO cells starved of EPO overnight; 72 hours at 37° C.; ViaLight Plus kit
Method: The primary testing for the examplfied compounds was performed in UT7/EPO Cell line. UT7/EPO is human leukemia cell line, obtained from Dr. Norio Komatsu (Blood, Vol 82 (2), pp 456-464, 1993). These cells express endogenous EPO receptor and are dependant upon EPO for growth and proliferation. Briefly, the cells were starved of EPO overnight and plated in 96 or 384 well plates. The compounds were added to the cells at 10 uM concentration. The plates were then incubated at 37° C. for 72 hours. The proliferative effect of the compounds was measured by a commercially available kit from Lonza (ViaLight Plus).

Point of comparison: `O=C(Nc1ccc(C(=O)c2ccc(NC(=O)C3CC3)cc2)cc1)c1ccc(N2CCOCC2)cc1` [Compound 359], “Activity (%)” value 19%. Against it:
- O=C(Nc1ccc2[nH]c(-c3ccc(N4CCOCC4)nc3)nc2c1)c1ccc(N2CCOCC2)cc1 [Compound 256, 4-morpholino-N-(2-(6-morpholinopyridin-3-yl)-1H-benzo[d]imidazol-5-yl)benzamide] — lower, 12%
- COc1ccc(/C=C/c2nc3cc(-c4ccc5nc(/C=C/c6ccc(OC)cc6)[nH]c5c4)ccc3[nH]2)cc1 [Compound 262, 2,2′-bis((E)-4-methoxystyryl)-1H,3′H-5,5′-bibenzo[d]imidazole] — higher, 20%
- O=C(Nc1ccc2[nH]c(-c3cccc(-c4nc5cc(NC(=O)c6ccc(N7CCCC7)cc6)ccc5[nH]4)c3)nc2c1)c1ccc(N2CCCC2)cc1 [Compound 268, N,N′-(2,2′-(1,3-phenylene)bis(1H-benzo[d]imidazole-5,2-diyl))bis(4-(pyrrolidin-1-yl)benzamide)] — lower, 15%
- CN(C)c1ccc(-c2nc3cc(NC(=O)c4ccc(C(=O)NN)cc4)ccc3[nH]2)cc1 [Compound 273, N-(2-(4-(dimethylamino)phenyl)-1H-benzo[d]imidazol-5-yl)-4-(hydrazinecarbonyl)benzamide] — lower, 16%
- COc1cccc(/C=N/NC(=O)c2ccc(C(=O)Nc3ccc4nc(-c5ccc(N(C)C)cc5)[nH]c4c3)cc2)c1 [Compound 278, (E)-N-(2-(4-(dimethylamino)phenyl)-1H-benzo[d]imidazol-6-yl)-4-(2-(3-methoxybenzylidene)hydrazinecarbonyl)benzamide] — higher, 23%
- CN(C)c1ccc(-c2nc3cc(C(=O)Nc4ccc(NC(=O)c5ccc6[nH]c(-c7ccc(N(C)C)cc7)nc6c5)cc4)ccc3[nH]2)cc1 [Compound 283, N,N′-(1,4-phenylene)bis(2-(4-(dimethylamino)phenyl)-1H-benzo[d]imidazole-5-carboxamide)] — the same, 19%
- O=C(Nc1ccc2[nH]c(-c3ccc(N4CCOCC4)cc3)nc2c1)c1ccc2nc(-c3ccc(N(CCO)CCO)cc3)[nH]c2c1 [Compound 288, 2-(4-(bis(2-hydroxyethyl)amino)phenyl)-N-(2-(4-morpholinophenyl)-1H-benzo[d]imidazol-5-yl)-1H-benzo[d]imidazole-6-carboxamide] — lower, 17%
- N#Cc1ccc(-c2nc3ccc(C(=O)Nc4ccc5[nH]c(-c6ccc(OCCO)cc6)nc5c4)cc3[nH]2)cc1 [Compound 294, 2-(4-cyanophenyl)-N-(2-(4-(2-hydroxyethoxy)phenyl)-1H-benzo[d]imidazol-5-yl)-1H-benzo[d]imidazole-6-carboxamide] — lower, 11%
- O=C(Nc1ccc2[nH]c(-c3ccc(N4CCOCC4)cc3)nc2c1)c1ccc2nc(-c3ccc(OCCO)cc3)[nH]c2c1 [Compound 299, 2-(4-(2-hydroxyethoxy)phenyl)-N-(2-(4-morpholinophenyl)-1H-benzo[d]imidazol-5-yl)-1H-benzo[d]imidazole-6-carboxamide] — lower, 15%
- CN(C)c1ccc(C(=O)Nc2ccc(C(O)c3ccc(NC(=O)c4ccc(N(C)C)cc4)cc3)cc2)cc1 [Compound 305, N,N′-((hydroxymethylene)bis(4,1-phenylene))bis(4-(dimethylamino)benzamide)] — lower, 18%
- CN(C)c1ccc(C(=O)Nc2ccc(C(=NOC(=O)Cc3ccccc3)c3ccc(NC(=O)c4ccc(N(C)C)cc4)cc3)cc2)cc1 [Compound 310, N,N′-((((2-phenylacetoxy)imino)methylene)bis(4,1-phenylene))bis(4-(dimethylamino)benzamide)] — higher, 22%
- CON=C(c1ccc(NC(=O)c2ccc(N3CCC(O)C3)cc2)cc1)c1ccc(NC(=O)c2ccc(N3CCC(O)C3)cc2)cc1 (centres unmarked) [Compound 315, N,N′-(((methoxyimino)methylene)bis(4,1-phenylene))bis(4-(3-hydroxypyrrolidin-1-yl)benzamide)] — lower, 16%
- O=C(Nc1ccc(C(=O)c2ccc(NC(=O)c3ccc(N4CCCCC4)cc3)cc2)cc1)c1ccc(N2CCCCC2)cc1 [Compound 322, N,N′-(carbonylbis(4,1-phenylene))bis(4-(piperidin-1-yl)benzamide)] — higher, 20%
- O=C(Nc1ccc(C(=O)c2ccc(NC(=O)c3ccc(N(CCO)CCO)cc3)cc2)cc1)c1ccc(N(CCO)CCO)cc1 [Compound 327, N,N′-(carbonylbis(4,1-phenylene))bis(4-(bis(2-hydroxyethyl)amino)benzamide)] — lower, 17%
- CON=C(c1ccc(NC(=O)c2ccc(N(C)CCO)cc2)cc1)c1ccc(NC(=O)c2ccc(N(C)CCO)cc2)cc1 [Compound 332, N,N′-(((methoxyimino)methylene)bis(4,1-phenylene))bis(4-((2-hydroxyethyl)(methyl)amino)benzamide)] — lower, 18%
- CON=C(c1ccc(NC(=O)c2ccc(N3CCN(C(=O)C4CC4)CC3)cc2)cc1)c1ccc(NC(=O)c2ccc(N3CCN(C(=O)C4CC4)CC3)cc2)cc1 [Compound 338, N,N′-(((methoxyimino)methylene)bis(4,1-phenylene))bis(4-(4-(cyclopropanecarbonyl)piperazin-1-yl)benzamide)] — the same, 19%
- O=C(Nc1ccc(C(=O)c2ccc(NC(=O)c3ccc4[nH]ccc4c3)cc2)cc1)c1ccc2[nH]ccc2c1 [Compound 345, N,N′-(4,4′-Carbonylbis(4,1-phenylene))bis(1H-indole-5-carboxamide)] — the same, 19%
- CC(=O)Nc1ccc(C(=O)c2ccc(NC(=O)c3ccc4c(ccn4C)c3)cc2)cc1 [Compound 349] — lower, 11%
- CN(C)c1ccc(C(=O)Nc2ccc(C(=O)c3ccc(NC(=O)c4ccc(F)cc4)cc3)cc2)cc1 [Compound 354, 4-(Dimethylamino)-N-(4-(4-(4-fluorobenzamido)benzoyl)phenyl)benzamide] — higher, 20%
- O=C(Nc1ccc(Nc2ccc(NC(=O)c3ccc(N4CCC(O)CC4)cc3)cc2)cc1)c1ccc(N2CCC(O)CC2)cc1 [Compound 364, N,N′-(4,4′-Azanediylbis(4,1-phenylene))bis(4-(4-hydroxypiperidino)benzamide)] — lower, 16%
- CN(C)c1ccc(C(=O)Nc2ccc(-n3ccc4cc(NC(=O)c5ccc(N(C)C)cc5)ccc43)cc2)cc1 [Compound 370, N-(1-(4-(4-Dimethylaminobenzamido)phenyl)-1H-indol-5-yl)-4-dimethylaminobenzamide] — lower, 18%
- CN(C)c1ccc(C(=O)Nc2ccc3c(cnn3-c3ccc(NC(=O)c4ccccc4)cc3)c2)cc1 [Compound 375, N-(1-(4-Benzamidophenyl)-1H-indazol-5-yl)-4-dimethylaminobenzamide] — lower, 11%
- Nc1ccc(-n2ncc3cc(NC(=O)c4ccc(N5CCOCC5)cc4)ccc32)cc1 [Compound 381, N-(1-(4-Aminophenyl)-1H-indazol-5-yl)-4-morpholinobenzamide] — lower, 15%
- CN(C)c1ccc(C(=O)Nc2ccc(-n3ncc4cc(NC(=O)C5CC5)ccc43)cc2)cc1 [Compound 384, N-(4-(5-(cyclopropanecarboxamido)-1H-indazol-1-yl)phenyl)-4-(dimethylamino)benzamide] — lower, 11%
- N#Cc1ccc(-n2ncc3cc(NC(=O)c4ccc(N5CCC(O)CC5)cc4)ccc32)cc1 [Compound 404, N-(1-(4-Cyanophenyl)-1H-indazol-5-yl)-4-(4-hydroxypiperidino)benzamide] — lower, 14%
- CN(C)c1ccc(C(=O)Nc2ccc(Sc3ccc(NC(=O)c4ccc(N(C)C)cc4)cc3)cc2)cc1 [Compound 408, N,N′-(4,4′-Thiobis(4,1-phenylene))bis(4-(dimethylamino)benzamide)] — lower, 13%
- O=C(Nc1ccc2[nH]c(-c3ccc(N4CCC5(CC4)OCCO5)cc3)nc2c1)c1ccc(N2CCOCC2)cc1 [Compound 413, N-(2-(4-(1,4-Dioxa-8-azaspiro[4,5]decan-8-yl)phenyl)-1H-benzimidazol-5-yl)-4-morpholinobenzamide] — the same, 19%
- O=C(Nc1ccc2[nH]c(-c3ccc(N4CCOCC4)s3)nc2c1)c1ccc(N2CCOCC2)cc1 [Compound 418, N-(2-(2-Morpholinothien-5-yl)-1H-benzimidazol-5-yl)-4-morpholinobenzamide] — lower, 11%
- CN1CCN(c2ccc(-c3nc4cc(NC(=O)c5ccc(N6CCOCC6)cc5)ccc4[nH]3)cc2)CC1 [Compound 423, N-(2-(4-(4-Methylpiperazino)phenyl)-1H-benzimidazol-5-yl)-4-morpholinobenzamide] — lower, 15%
- O=C(Nc1ccc2[nH]c(-c3ccc(N4CCOCC4)cc3)nc2c1)c1ccccc1O [Compound 427, N-(2-(4-Morpholinophenyl)-1H-benzimidazol-5-yl)-2-hydroxybenzamide] — lower, 15%
- O=C(Nc1ccc2[nH]c(-c3ccc(N4CCOCC4)cc3)nc2c1)C(=O)Nc1ccc2nc(-c3ccc(N4CCOCC4)cc3)[nH]c2c1 [Compound 434, N,N′-bis-(2-(4-Morpholinophenyl)-1H-benzimidazol-5-yl)oxalamide] — lower, 15%
- COc1cccc(Nc2nc3cc(NC(=O)c4ccc5[nH]c(-c6ccc(N(C)C)cc6)nc5c4)ccc3[nH]2)c1 [Compound 439, N-(2-(3-Methoxyphenyl)amino-1H-benzimidazol-5-yl)-2-(4-dimethylaminophenyl)-1H-benzimidazole-5-carbamide] — lower, 18%
- COc1ccc(-c2nc3cc(NC(=O)c4ccc(NC(=O)c5ccc(N(C)C)cc5)cc4)ccc3[nH]2)cc1 [Compound 444, 4-(dimethylamino)-N-(4-((2-(4-methoxyphenyl)-1H-benzo[d]imidazol-5-yl)carbamoyl)phenyl)benzamide] — the same, 19%
- CS(=O)(=O)Nc1ccc2[nH]c(-c3ccc(C(=O)Nc4ccc(N5CCOCC5)cc4)cc3)nc2c1 [Compound 449] — lower, 16%
